Source: PMC10746280, “Bacterial efflux pump modulators prevent bacterial growth in macrophages and under broth conditions that mimic the host environment” (mBio, 2023)

Experiments:
RAW 264.7 macrophages = assay: SAFIRE macrophage assay: host toxicity (adherent macrophage count, morphology); type: cell-based
Procedure, shortened: (§1)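 RAW 264.7 macrophages infected with S. Typhimurium SL1344 sifB::gfp (MOI ~30), gentamicin 40 µg/mL, then compound from 2 h to 18 h post-infection. Confocal imaging with MitoTracker and DAPI; toxicity as adherent MitoTracker-positive macrophage count, bacterial load as GFP+ macrophage area.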

[1] = test system: S. Typhimurium SL1344 (sifB::gfp) in RAW 264.7 macrophages; assay: SAFIRE macrophage assay: intracellular bacterial load (GFP signal within macrophages); type: cell-based, Salmonella enterica serotype Typhimurium; conditions: for IC50: Salmonella enterica, TYPHIMURIUM, RAW264.7, read-out: SAFIRE IC50
Procedure, shortened: as §1

[2] = 5 uM, 'Toxic' given instead of a score
[3] = 25 uM, 'Toxic' given instead of a score
[4] = 5 uM compound, n=1, DMSO solvent control = 100
[5] = 25 uM compound, n=1, DMSO solvent control = 100
[6] = 5 uM compound, n=1, DMSO solvent control = 98, rifampicin 2 μg/mL = 65
[7] = 25 uM compound, n=1, DMSO solvent control = 98, rifampicin 2 μg/mL = 65

| Compound | 5 uM Avg Cell # Score (RAW 264.7 macrophages; 5 uM) | 25 uM Avg Cell # Score (RAW 264.7 macrophages; 25 uM) | 5 uM Avg Antibacterial Score [1, 2] | 25 uM Avg Antibacterial Score [1, 3] | IC50 [1] | 5 uM Avg Cell # Score (RAW 264.7 macrophages; [4]) | 25 uM Avg Cell # Score (RAW 264.7 macrophages; [5]) | 5 uM Avg Antibacterial Score [1, 6] | 25 uM Avg Antibacterial Score [1, 7] |
| --- | --- | --- | --- | --- | --- | --- | --- | --- | --- |
| NCC1CCN(CC(O)COc2ccc(Cl)c(Cl)c2)C1 (stereo not drawn) [CU206] | 124 | 87 | 25 | 12 | – | – | – | – | – |
| c1ccc2c(CN3CCNCC3)cccc2c1 [CU207] | 113 | 121 | 98 | 59 | – | – | – | – | – |
| NCC1CCN(CC(O)COc2cc(Cl)cc(Cl)c2)CC1 (stereo not drawn) [CU208] | 167 | 15 | 20 | Toxic | – | – | – | – | – |
| NCC1CCN(CC(O)COc2cc(Cl)cc(Cl)c2)C1 (stereo not drawn) [CU209] | 143 | 94 | 41 | 14 | – | – | – | – | – |
| COCCCN(C)C1CCN(CC(O)COc2ccc(Cl)c(Cl)c2)CC1 (stereo not drawn) [CU210] | 131 | 112 | 54 | 8 | 6 nM | – | – | – | – |
| COCCN1CCN(CC(O)COc2ccc(Cl)c(Cl)c2)CC1 (stereo not drawn) [CU211] | 120 | 115 | 100 | 50 | – | – | – | – | – |
| OC(COc1ccc(Cl)c(Cl)c1)CN1CCN(Cc2cccc3ccccc23)CC1 (stereo not drawn) [CU212] | 19 | 18 | Toxic | Toxic | – | – | – | – | – |
| OC(COc1cc(Cl)cc(Cl)c1)CN1CCN(Cc2cccc3ccccc23)CC1 (stereo not drawn) [CU213] | 41 | 15 | Toxic | Toxic | – | – | – | – | – |
| NC1CCN(CC(O)COc2ccc3ccccc3c2)CC1 (stereo not drawn) [CU214] | 103 | 22 | 28 | Toxic | – | – | – | – | – |
| NC1CCN(CC(O)COc2cccc3ccccc23)CC1 (stereo not drawn) [CU215] | 106 | 17 | 44 | Toxic | – | – | – | – | – |
| N[C@H]1CC[C@@H](NCC(O)COc2cc(Cl)cc(Cl)c2)CC1 (stereo partly drawn) [CU216] | 102 | 22 | 52 | Toxic | – | – | – | – | – |
| N[C@H]1CC[C@H](NCC(O)COc2cc(Cl)cc(Cl)c2)CC1 (stereo partly drawn) [CU217] | 106 | 96 | 65 | 16 | – | – | – | – | – |
| N[C@H]1CC[C@@H](N2CC(COc3cc(Cl)cc(Cl)c3)OC2=O)CC1 (stereo partly drawn) [CU218] | 163 | 131 | 83 | 15 | – | – | – | – | – |
| N[C@H]1CC[C@H](N2CC(COc3cc(Cl)cc(Cl)c3)OC2=O)CC1 (stereo partly drawn) [CU219] | 137 | 123 | 93 | 22 | – | – | – | – | – |
| CN1CCN(CC(O)COc2ccc(Cl)c(Cl)c2)CC1=O (stereo not drawn) [CU220] | 116 | 105 | 104 | 105 | – | – | – | – | – |
| CN(C)CC1COCCN1CC(O)COc1ccc(Cl)c(Cl)c1 (stereo not drawn) [CU221] | 104 | 106 | 106 | 84 | – | – | – | – | – |
| OC(COc1ccc(Cl)c(Cl)c1)CN1C2CCC1COC2 (stereo not drawn) [CU222] | 108 | 103 | 101 | 72 | – | – | – | – | – |
| OC(COc1ccc(Cl)c(Cl)c1)CN1CC2CC(C1)O2 (stereo not drawn) [CU223] | 106 | 100 | 104 | 103 | – | – | – | – | – |

| Compound | 5 uM Avg Cell # Score (RAW 264.7 macrophages; 5 uM) | 25 uM Avg Cell # Score (RAW 264.7 macrophages; 25 uM) | 5 uM Avg Antibacterial Score [1, 2] | 25 uM Avg Antibacterial Score [1, 3] | IC50 [1] | 5 uM Avg Cell # Score (RAW 264.7 macrophages; [4]) | 25 uM Avg Cell # Score (RAW 264.7 macrophages; [5]) | 5 uM Avg Antibacterial Score [1, 6] | 25 uM Avg Antibacterial Score [1, 7] |
| --- | --- | --- | --- | --- | --- | --- | --- | --- | --- |
| OC(COc1ccc(Cl)c(Cl)c1)CN1CC2CCC1CO2 (stereo not drawn) [CU224] | 117 | 95 | 100 | 69 | – | – | – | – | – |
| OC(COc1ccc(Cl)c(Cl)c1)CN1CC2CC1CO2 (stereo not drawn) [CU225] | 114 | 101 | 98 | 73 | – | – | – | – | – |
| OC(COc1ccc(Cl)c(Cl)c1)CN1CC2CCC(C1)O2 (stereo not drawn) [CU226] | 108 | 74 | 102 | 108 | – | – | – | – | – |
| OC(COc1ccc(Cl)c(Cl)c1)CN1CCC2(CCO2)C1 (stereo not drawn) [CU228] | 111 | 102 | 98 | 58 | – | – | – | – | – |
| OC(COc1ccc(Cl)c(Cl)c1)CN1CCC2(CCO2)CC1 (stereo not drawn) [CU229] | 147 | 141 | 101 | 83 | – | – | – | – | – |
| NC1CCCN(CC(O)COc2ccc(Cl)c(Cl)c2)CC1 (stereo not drawn) [CU230] | 134 | 19 | 34 | Toxic | – | – | – | – | – |
| NC1CCCN(CC(O)COc2cc(Cl)cc(Cl)c2)CC1 (stereo not drawn) [CU231] | – | – | – | – | – | 112 | 19 | 22 | Toxic |
| NC1CCN(CC(O)COc2ccccc2C(F)(F)F)CC1 (stereo not drawn) [CU233] | – | – | – | – | – | 128 | 104 | 47 | 34 |
| OC(COc1cc(Cl)cc(Cl)c1)CN1CCC(n2ccnc2)CC1 (stereo not drawn) [CU234] | – | – | – | – | – | 134 | 108 | 40 | 12 |
| CC1(N)CCN(CC(O)COc2ccc(Cl)c(Cl)c2)CC1 (stereo not drawn) [CU235] | – | – | – | – | – | 125 | 84 | 20 | 14 |
| OC(CN[C@H]1[C@@H]2CNC[C@@H]21)COc1ccc(Cl)c(Cl)c1 (stereo partly drawn) [CU236] | – | – | – | – | – | 121 | 99 | 53 | 18 |
| N[C@@H]1CCN(C[C@H](O)COc2ccc(Cl)c(Cl)c2)C1 [CU237] | – | – | – | – | 8.2 nM | 125 | 107 | 34 | 11 |
| N[C@H]1CCN(C[C@H](O)COc2ccc(Cl)c(Cl)c2)C1 [CU238] | – | – | – | – | – | 126 | 102 | 34 | 12 |
| N[C@@H]1CCN(C[C@@H](O)COc2ccc(Cl)c(Cl)c2)C1 [CU239] | – | – | – | – | 13.5 nM | 129 | 104 | 25 | 8 |
| N[C@H]1CCN(C[C@@H](O)COc2ccc(Cl)c(Cl)c2)C1 [CU240] | – | – | – | – | 9.1 nM | 118 | 105 | 29 | 10 |
| NC1CCN(CC(COc2ccc(Cl)c(Cl)c2)OCc2ccccc2)CC1 (stereo not drawn) [CU241] | – | – | – | – | – | 110 | 6 | 30 | Toxic |
| COC(COc1ccc(Cl)c(Cl)c1)CN1CCC(N)CC1 (stereo not drawn) [CU242] | – | – | – | – | – | 123 | 109 | 28 | 9 |
